Type in all cases: cell-based
The test system of one assay is SREBP-1. Description: SREBP-1 expression in cultured primary human hepatocytes. The settings on record: procedure of Example 6, read-out: SREBP-1 mRNA inhibition (EC50). The protocol: (§1) FIG. 9. Effects of HPN-01 on the expression of SREBP-1 (master regulator of hepatic glucose metabolism and fatty acid synthesis) and SREBP-2 (master regulator of cholesterol homeostasis in cells) in cultured primary human hepatocytes.
(§2) Cultured primary human hepatocytes were treated with various concentrations of HPN-01, and the expression levels of SREBP-1 (master regulator of hepatic glucose metabolism and fatty acid synthesis) and SREBP-2 (master regulator of cholesterol homeostasis in cells) were subsequently determined.
(§3) The ability of each HPN-01 derivative obtained from the synthesis methods described above, to inhibit SREBP-1 and SREBP-2 mRNA expression in primary hepatocytes, was tested using the procedure outlined in Example 6. The results of this analysis are shown in Table 6 (third and fourth columns).

A further assay concerns SREBP-2. Description: SREBP-2 expression in cultured primary human hepatocytes. Particulars: procedure of Example 6, read-out: SREBP-2 mRNA inhibition (EC50). The protocol:
as §1, §2, §3

A further assay concerns Huh7 cells. Description: LD content in Huh7 cells pre-treated with insulin, Oil-Red-O staining, absorbance OD 540 nm. The settings on record: procedure of Example 3, read-out: LD content inhibition (EC50). Here is the method:
FIG. 6. […] Spectrophotometric absorbance of untreated or HPN-01-treated Huh7 cells pre-incubated with 1 mM insulin is shown. LD contents were stained using Oil Red O, and measured by determining spectrophotometer absorbance under OD 540 nm.
Huh7 cells were mock treated or pre-treated with 1 mM insulin, and subsequently treated with indicated amounted of HPN-01.
The ability of each HPN-01 derivative obtained from the synthesis methods described above, to inhibit LD formation in hepatocytes, was tested using the procedure outlined in Example 3. The results of this analysis are shown below in Table 6 (second column).

Where [1] appears, read: Homo sapiens, Huh-7, Huh7 cells.

Where two headings read alike, the source gives them in different places.

Broadly, the EC50 is the midpoint of the concentration-response curve. As for `NC(=O)c1cc(-c2ccc(Cl)cc2)cc(-c2ccc(NC(=O)CO)cc2)c1N` [HPN-01419, 4′-amino-4-chloro-4″-(2-hydroxyacetamido)-[1,1′:3′,1″-terphenyl]-5′-carboxamide], the EC50 in the assay with SREBP-1 (Homo sapiens, Hepatocyte) is 1.82 µM; in the assay on SREBP-2 (Homo sapiens, Hepatocyte), 3.53 µM; with Huh7 cells (setting [1]) it was 0.5 µM.
Take “2-amino-5-((3-chlorophenyl)ethynyl)-4′-sulfamoyl-[1,1′-biphenyl]-3-carboxamide [HPN-01206]”: the EC50 was 1.68 µM with SREBP-1, 1.07 µM in the assay with SREBP-2 and 0.9 µM in the assay on Huh7 cells (Huh7 cells).
The matching figures for “methyl (E)-3-(6-amino-4′-(amino-(methylene)sulfinyl)-5-carbamoyl-[1,1′-biphenyl]-3-yl)acrylate [HPN-01114]”: 1.27 µM, 2.47 µM and 0.21 µM.
Consider `CC(=O)OCC#Cc1cc(C(N)=O)c(N)c(-c2ccc(S(N)(=O)=O)cc2)c1` [HPN-01223, 3-(6-amino-5-carbamoyl-4′-sulfamoyl-[1,1′-biphenyl]-3-yl)prop-2-yn-1-yl acetate], for which the EC50 in the assay on SREBP-1 (Homo sapiens, Hepatocyte) came out at 2.64 µM; in the assay on SREBP-2 (Homo sapiens, Hepatocyte), 4.2 µM; in the assay with Huh7 cells (setting [1]) it was 1.03 µM.
On the same counts, the results for `NC(=O)c1cc(-c2ccc(Br)cc2)cc(Nc2ccc(S(N)(=O)=O)cc2)c1N` [HPN-01404, 4-amino-4′-bromo-5-((4-sulfamoylphenyl)amino)-[1,1′-biphenyl]-3-carboxamide] are 1.97 µM, 3.39 µM and 0.64 µM.
The matching figures for `Nc1c(C(=O)Nc2ccc(O)c(O)c2)cc(-c2ccc(Cl)cc2)cc1-c1ccc(S(N)(=O)=O)cc1` [HPN-01617, 4′-amino-4-chloro-N-(3,4-dihydroxyphenyl)-4″-sulfamoyl-[1,1′:3′,1″-terphenyl]-5′-carboxamide]: 1.88 µM, 3.68 µM and 0.32 µM.
The matching figures for `CC(C)OC(=O)c1ccc(-c2cc(C(N)=O)c(N)c(-c3ccc(S(N)(=O)=O)cc3)c2)cc1` [HPN-01303, isopropyl 4′-amino-5′-carbamoyl-4″-sulfamoyl-[1,1′:3′,1″-terphenyl]-4-carboxylate]: 6.62 µM, 10.5 µM and 1.3 µM.
On to `Nc1c(C(=O)Nc2ccc[nH]2)cc(-c2ccc(Cl)cc2)cc1-c1ccc(S(N)(=O)=O)cc1` [HPN-01626, 4′-amino-4-chloro-N-(1H-pyrrol-2-yl)-4″-sulfamoyl-[1,1′:3′,1″-terphenyl]-5′-carboxamide], for which the half-maximal effective concentration (EC50) turned out to be 7.22 µM with SREBP-1 (Homo sapiens, Hepatocyte); 12.5 µM with SREBP-2 (Homo sapiens, Hepatocyte); 3.05 µM in the assay on Huh7 cells (setting [1]).
For `NC(=O)c1cc(-c2ccc(Br)cc2)cc(Oc2cccc(S(N)(=O)=O)c2)c1N` [HPN-01415, 4-amino-4′-bromo-5-(3-sulfamoylphenoxy)-[1, 1′-biphenyl]-3-carboxamide], the concentration for a half-maximal effect (EC50) with SREBP-1 (Homo sapiens, Hepatocyte) came to 2.35 µM; in the assay with SREBP-2 (Homo sapiens, Hepatocyte), 6.45 µM; with Huh7 cells (setting [1]), 0.66 µM.
The matching figures for `NC(=O)c1cc(/C=C/C(=O)Nc2ccc(C(=O)O)cc2)cc(-c2ccc(S(N)(=O)=O)cc2)c1N` [HPN-01121, (E)-4-(3-(6-amino-5-carbamoyl-4′-sulfamoyl-[1,1′-biphenyl]-3-yl)acrylamido)benzoic acid]: 6.59 µM, 8.04 µM and 2.14 µM.
Consider “4-(4′-amino-4-bromo-4″-sulfamoyl-[1,1′:3′,1″-terphenyl]-5′-yl)piperazine-1-carboxamide [HPN-01624]”, for which the EC50 in the assay on SREBP-1 turned out to be 7.54 µM; with SREBP-2 it was 13.5 µM; in the assay with Huh7 cells (Huh7 cells) it was 1.3 µM.
The matching figures for `NCCC(=O)Nc1c(C(N)=O)cc(-c2ccc(Cl)cc2)cc1-c1ccc(S(N)(=O)=O)cc1` [HPN-01530, 4′-(3-aminopropanamido)-4-chloro-4″-sulfamoyl-[1,1′:3′,1″-terphenyl]-5′-carboxamide]: 3.94 µM, 9.4 µM and 0.46 µM.
`NC(=O)c1cc(-c2ccc(Cl)cc2)cc(-c2ccc(N3CC=NC3=O)cc2)c1N` [HPN-01420, 4′-amino-4-chloro-4″-(2-oxo-2,5-dihydro-1H-imidazol-1-yl)-[1,1′:3′,1″-terphenyl]-5′-carboxamide]: the EC50 in the assay on SREBP-1 (Homo sapiens, Hepatocyte) was 2.14 µM; with SREBP-2 (Homo sapiens, Hepatocyte), 2.37 µM; in the assay on Huh7 cells (setting [1]), 0.42 µM.
The matching figures for `CCCC(=O)Nc1c(C(N)=O)cc(-c2ccc(Cl)cc2)cc1-c1ccc(NC(N)=O)cc1` [HPN-01519, 4′-butyramido-4-chloro-4″-ureido-[1,1′:3′,1″-terphenyl]-5′-carboxamide]: 1.51 µM, 2.75 µM and 0.81 µM.
With `NC(=O)c1cc(C#Cc2ccccc2)cc(-c2ccc(S(N)(=O)=O)cc2)c1N` [HPN-01202, 2-amino-5-(phenylethynyl)-4′-sulfamoylbiphenyl-3-carboxamide], the EC50 in the assay with SREBP-1 (Homo sapiens, Hepatocyte) came out at 0.64 µM; in the assay with SREBP-2 (Homo sapiens, Hepatocyte), 0.9 µM; in the assay with Huh7 cells (setting [1]) it was 0.29 µM.
On the same counts, the results for `NC(=O)c1cc(-c2cc(Cl)c[nH]2)cc(-c2ccc(S(N)(=O)=O)cc2)c1N` [HPN-01309, 2-amino-5-(4-chloro-1H-pyrrol-2-yl)-4′-sulfamoyl-[1,1′-biphenyl]-3-carboxamide] are 8.16 µM, 8.96 µM and 3.5 µM.
The matching figures for `Nc1c(C(=O)Nc2ccc(O)c(O)c2)cc(-c2ccc(Br)cc2)cc1-c1ccc(S(N)(=O)=O)cc1` [HPN-01618, 4′-amino-4-bromo-N-(3,4-dihydroxyphenyl)-4″-sulfamoyl-[1,1′:3′,1″-terphenyl]-5′-carboxamide]: 3.57 µM, 6.37 µM and 1.43 µM.
Turning to `Cc1ccc(NC(=O)/C=C/c2cc(C(N)=O)c(N)c(-c3ccc(S(N)(=O)=O)cc3)c2)cc1` [HPN-01126, (E)-2-amino-5-(3-oxo-3-(p-tolylamino)prop-1-en-1-yl)-4′-sulfamoyl-[1,1′-biphenyl]-3-carboxamide], the EC50 in the assay on SREBP-1 (Homo sapiens, Hepatocyte) is 2.43 µM; in the assay on SREBP-2 (Homo sapiens, Hepatocyte), 4.54 µM; in the assay on Huh7 cells (setting [1]) it was 0.83 µM.
The matching figures for `Nc1c(C(=O)Nc2ccccc2)cc(-c2ccc(Cl)cc2)cc1-c1ccc(S(N)(=O)=O)cc1` [HPN-01611, 4′-amino-4-chloro-N-phenyl-4″-sulfamoyl-[1,1′:3′,1″-terphenyl]-5′-carboxamide]: 1.37 µM, 2.24 µM and 0.79 µM.
On the same counts, the results for `NC(=O)c1cc(/C=C/C(=O)OCc2ccccc2)cc(-c2ccc(S(N)(=O)=O)cc2)c1N` [HPN-01120, benzyl (E)-3-(6-amino-5-carbamoyl-4′-sulfamoyl-[1,1′-biphenyl]-3-yl)acrylate] are 6.44 µM, 5.1 µM and 0.68 µM.
On the same counts, the results for `NC(=O)c1cc(/C=C/C(=O)OCCc2ccccc2)cc(-c2ccc(S(N)(=O)=O)cc2)c1N` [HPN-01123, phenethyl (E)-3-(6-amino-5-carbamoyl-4′-sulfamoyl-[1,1′-biphenyl]-3-yl)acrylate] are 3.45 µM, 4.45 µM and 0.89 µM.
Regarding `NC(=O)c1cc(/C=C/c2ccc(Cl)cc2)cc(-c2ccc(S(N)(=O)=O)cc2)c1N` [HPN-01107, (E)-2-amino-5-(4-chlorostyryl)-4′-sulfamoyl-[1,1′-biphenyl]-3-carboxamide], the EC50 in the assay with SREBP-1 (Homo sapiens, Hepatocyte) is 5.66 µM; with SREBP-2 (Homo sapiens, Hepatocyte), 7.37 µM; in the assay with Huh7 cells (setting [1]), 1.17 µM.
The matching figures for `CCOc1ccc(NC(=O)/C=C/c2cc(C(N)=O)c(N)c(-c3ccc(S(N)(=O)=O)cc3)c2)cc1` [HPN-01129, (E)-2-amino-5-(3-((4-ethoxyphenyl)amino)-3-oxoprop-1-en-1-yl)-4′-sulfamoyl-[1,1′-biphenyl]-3-carboxamide]: 1.69 µM, 3.1 µM and 0.29 µM.
For `Nc1c(-c2ccc(S(N)(=O)=O)cc2)cc(-c2ccc(Br)cc2)cc1N1CCNCC1` [HPN-01622, 6′-amino-4″-bromo-5′-(piperazin-1-yl)-[1,1′:3′,1″-terphenyl]-4-sulfonamide], the EC50 worked out at 37.1 µM with SREBP-1 (Homo sapiens, Hepatocyte); 50.8 µM in the assay on SREBP-2 (Homo sapiens, Hepatocyte); 22.8 µM with Huh7 cells (setting [1]).
With `NC(=O)c1cc(Oc2cccc(C(=O)O)c2)cc(-c2ccc(S(N)(=O)=O)cc2)c1N` [HPN-01318, 3-((6-amino-5-carbamoyl-4′-sulfamoyl-[1,1′-biphenyl]-3-yl)oxy)benzoic acid], the concentration for a half-maximal effect (EC50) in the assay on SREBP-1 (Homo sapiens, Hepatocyte) amounted to 0.77 µM; in the assay on SREBP-2 (Homo sapiens, Hepatocyte) it was 1.16 µM; in the assay on Huh7 cells (setting [1]), 0.31 µM.
On the same counts, the results for `COC(=O)c1cccc(Nc2cc(C(N)=O)c(N)c(-c3ccc(S(N)(=O)=O)cc3)c2)c1` [HPN-01319, methyl 3-((6-amino-5-carbamoyl-4′-sulfamoyl-[1,1′-biphenyl]-3-yl)amino)benzoate] are 4.8 µM, 3.42 µM and 0.63 µM.

(Values after US11000491B2, “Amino-aryl-benzamide compounds and methods of use thereof” (HEPANOVA, INC., priority 2017, dated 2021).)
